Measurements published in PMC8402619 (Viruses, 2021).
Where two headings read alike, the source gives them in different places.

Tests used:
[1] = Plasma protein binding by equilibrium dialysis, mouse plasma; format: in vitro ADME; details: pH 7.4
[2] = molecular target: T1, CYP1A2 (Homo sapiens, UniProt P05177); assay: Reversible CYP inhibition in pooled human liver microsomes; format: in vitro ADME
T1 sequence (P05177 1-516): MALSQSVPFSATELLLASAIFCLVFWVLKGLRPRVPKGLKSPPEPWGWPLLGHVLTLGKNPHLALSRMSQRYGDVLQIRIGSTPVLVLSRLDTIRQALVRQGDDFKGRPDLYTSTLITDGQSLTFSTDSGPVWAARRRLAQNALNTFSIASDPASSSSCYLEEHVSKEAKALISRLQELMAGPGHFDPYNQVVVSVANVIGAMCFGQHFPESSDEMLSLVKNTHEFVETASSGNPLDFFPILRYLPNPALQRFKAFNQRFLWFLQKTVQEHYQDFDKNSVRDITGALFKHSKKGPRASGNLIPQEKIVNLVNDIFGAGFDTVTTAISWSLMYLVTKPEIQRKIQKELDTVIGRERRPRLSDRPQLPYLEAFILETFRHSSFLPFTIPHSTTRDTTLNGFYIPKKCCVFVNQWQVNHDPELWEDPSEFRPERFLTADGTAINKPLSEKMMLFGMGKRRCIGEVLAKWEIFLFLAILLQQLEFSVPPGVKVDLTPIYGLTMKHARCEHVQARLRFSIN

[3] = molecular target: T2, CYP2C8 (Homo sapiens, UniProt P10632); assay: as above; format: in vitro ADME
T2 sequence (P10632 1-490): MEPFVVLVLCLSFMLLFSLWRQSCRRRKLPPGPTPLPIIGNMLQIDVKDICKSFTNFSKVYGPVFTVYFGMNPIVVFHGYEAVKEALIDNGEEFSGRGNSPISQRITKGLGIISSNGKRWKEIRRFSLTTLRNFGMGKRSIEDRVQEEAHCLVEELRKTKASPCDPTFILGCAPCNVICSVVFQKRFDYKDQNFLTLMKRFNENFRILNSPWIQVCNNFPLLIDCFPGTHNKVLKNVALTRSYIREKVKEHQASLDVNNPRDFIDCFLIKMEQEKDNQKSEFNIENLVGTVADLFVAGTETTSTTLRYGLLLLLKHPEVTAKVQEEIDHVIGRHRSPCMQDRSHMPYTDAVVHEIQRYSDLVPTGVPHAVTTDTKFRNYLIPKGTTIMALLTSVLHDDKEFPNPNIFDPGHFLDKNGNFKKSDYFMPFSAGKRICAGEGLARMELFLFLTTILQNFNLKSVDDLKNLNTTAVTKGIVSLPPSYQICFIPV

[4] = molecular target: CYP2C19 (Homo sapiens, UniProt P33261); assay: Time-dependent CYP inhibition in pooled human liver microsomes; format: in vitro ADME
[5] = test system: HIV-1; details: cited from earlier work
[6] = cited from earlier work
[7] = test system: CYP1A2; assay: CYP induction in cryopreserved human hepatocytes; details: for mRNA Mean Fold Change ± SD CYP1A2: 48 h, n = 3 donors, vs DMSO vehicle
[8] = molecular target: T3, BCRP (Homo sapiens, UniProt Q9UNQ0); assay: Bidirectional transport across MDCKII and MDCKII-BCRP cell monolayers; format: in vitro ADME; design: expressed in transfected cells; host or cells: MDCKII; details: for efflux ratio at 3 h, 2 µM: human
T3 sequence (Q9UNQ0 1-655): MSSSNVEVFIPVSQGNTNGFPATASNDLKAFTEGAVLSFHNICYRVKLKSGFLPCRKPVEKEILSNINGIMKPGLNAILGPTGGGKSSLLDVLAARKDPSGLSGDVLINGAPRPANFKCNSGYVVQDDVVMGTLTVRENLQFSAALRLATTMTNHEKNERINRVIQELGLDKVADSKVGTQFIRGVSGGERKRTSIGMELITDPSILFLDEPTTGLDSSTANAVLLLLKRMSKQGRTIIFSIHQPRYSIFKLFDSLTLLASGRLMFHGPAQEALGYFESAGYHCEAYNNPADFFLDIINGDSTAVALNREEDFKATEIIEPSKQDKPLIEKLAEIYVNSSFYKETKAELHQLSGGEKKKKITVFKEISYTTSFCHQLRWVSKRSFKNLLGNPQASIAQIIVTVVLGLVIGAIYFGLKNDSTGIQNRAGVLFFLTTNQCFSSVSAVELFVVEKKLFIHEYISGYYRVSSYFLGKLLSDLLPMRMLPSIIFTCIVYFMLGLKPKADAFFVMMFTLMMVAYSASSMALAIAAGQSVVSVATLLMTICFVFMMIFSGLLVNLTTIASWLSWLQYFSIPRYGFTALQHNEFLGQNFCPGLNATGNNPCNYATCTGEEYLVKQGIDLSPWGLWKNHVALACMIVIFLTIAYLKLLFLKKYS

Chain of CYP2C19 (P33261 whole entry): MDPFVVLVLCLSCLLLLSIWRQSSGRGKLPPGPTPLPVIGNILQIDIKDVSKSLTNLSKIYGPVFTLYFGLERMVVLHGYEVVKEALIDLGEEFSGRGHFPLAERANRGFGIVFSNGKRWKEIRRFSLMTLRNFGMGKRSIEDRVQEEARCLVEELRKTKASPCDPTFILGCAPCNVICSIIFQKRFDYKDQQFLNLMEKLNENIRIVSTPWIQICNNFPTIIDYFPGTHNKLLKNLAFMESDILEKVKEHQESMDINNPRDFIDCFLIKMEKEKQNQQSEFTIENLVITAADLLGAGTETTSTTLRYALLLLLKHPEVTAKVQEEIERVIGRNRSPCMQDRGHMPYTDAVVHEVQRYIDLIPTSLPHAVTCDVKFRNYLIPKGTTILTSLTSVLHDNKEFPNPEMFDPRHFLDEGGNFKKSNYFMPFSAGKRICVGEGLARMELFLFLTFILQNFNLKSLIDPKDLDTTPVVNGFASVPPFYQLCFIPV

For `C#C[C@]1(CO)O[C@@H](n2cnc3c(N)nc(F)nc32)C[C@@H]1O` [Islatravir, 4′-Ethynyl-2-fluoro-2′-deoxyadenosine], the fraction unbound at 24 h, 0.1 µM [1] was > 0.84, the “DDI Potential” value ([2]; CYP1A2 reversible inhibition, FDA, EMA, PMDA guidance) was “Low risk” and the “Maximum Unbound Plasma Concentration (Imax,u) to Ki,u Ratio” value ([2]; CYP1A2 reversible, 60 mg, Cmax 1.01 µM, fu,p 0.96, Ki,u = IC50/2) was <0.019 µM. The IC50 ([2]; reversible, CYP1A2 phenacetin O-deethylation, read-out: Islatravir IC50) was > 100 µM, the “DDI Potential” value ([3]; CYP2C8 reversible inhibition, FDA, EMA, PMDA guidance) was “Low risk” and the “Maximum Unbound Plasma Concentration (Imax,u) to Ki,u Ratio” value ([3]; CYP2C8 reversible, 60 mg, Cmax 1.01 µM, fu,p 0.96, Ki,u = IC50/2) was <0.019 µM. The IC50 ([3]; reversible, CYP2C8 amodiaquine N-deethylation, read-out: Islatravir IC50) was > 100 µM, the time-dependent inhibition ([4]; CYP2C19, pre-incubation of 10 and 50 µM for up to 30 min) was “no time-dependent inhibition” and the “DDI Potential” value ([4]; CYP2C19 time dependent inhibition) was “Low risk ^h”. The IC50 ([4]; time dependent, CYP2C19, read-out: Islatravir IC50) was > 50 µM, the tolerability ([5]; participants with and without HIV across a range of doses) was “generally well tolerated” and the “duration of viral load reduction maintained” value ([5]; single administration at a dose as low as 0.5 mg) was 7 days. For the same molecule, the “duration of viral load suppression” value ([5]; treatment-naïve PLWH, oral doses between 0.5 and 30 mg) was “at least 7 days”, the “drug-drug interaction, PK” value ([6]; co-administered with doravirine) was “no clinically meaningful effects on the PK of either drug” and the drug-drug interaction ([6]; co-administration with levonorgestrel/ethinyl estradiol) was “No significant drug–drug interactions”. For the same molecule, the “drug-drug interaction, PK” value ([6]; with tenofovir disoproxil fumarate and dolutegravir) was “no meaningful drug–drug interactions”, the “mRNA Mean Fold Change ± SD CYP1A2” value ([7]; 0.1 µM) was 0.4 ± 0.2 and the “mRNA Mean Fold Change ± SD CYP1A2” value ([7]; 0.5 µM) was 0.4 ± 0.2. For the same molecule, the “mRNA Mean Fold Change ± SD CYP1A2” value ([7]; 1 µM) was 0.5 ± 0.3, the “mRNA Mean Fold Change ± SD CYP1A2” value ([7]; 5 µM) was 0.4 ± 0.3 and the “mRNA Mean Fold Change ± SD CYP1A2” value ([7]; 10 µM) was 0.5 ± 0.4. The “mRNA Mean Fold Change ± SD CYP1A2” value ([7]; 20 µM) was 0.2 ± 0.2, the “mRNA response relative to positive control” value ([7]; CYP1A2, each tested concentration 0.1-20 µM) was “less than 20%” and the “enzyme activity, fold of solvent control” value ([7]; CYP1A2 phenacetin O-deethylation, all islatravir concentrations) was ≤ 1.1 fold. For the same molecule, the BCRP substrate assessment ([8]; bi-directional transport assay) was “substrate of BCRP”, the Papp at 3 h, 2 µM ([8]; dog, MDCK, MDCKII cells, read-out: apparent permeability coefficient (Papp)) was 1.6 to 2.2 ×10⁻⁶ cm/s and the efflux ratio at 2 µM ([8]; dog, MDCK, islatravir 2 µM, untransfected control cells, mean ± SEM, read-out: mean Papp(B to A)/Papp(A to B) efflux ratio) was 0.8 ± 0.2. For the same molecule, the efflux ratio at 3 h, 2 µM ([8]; islatravir 2 µM, BCRP-transfected monolayers with Ko143 (5 µM), mean ± SEM, read-out: mean Papp(B to A)/Papp(A to B) efflux ratio) was 0.9 ± 0.1 and the efflux ratio at 3 h, 2 µM ([8]; islatravir 2 µM, BCRP-transfected monolayers, mean ± SEM, read-out: mean Papp(B to A)/Papp(A to B) efflux ratio) was 4.3 ± 1.1.
